From patent publication US20130252831A1, “METHOD OF DIAGNOSING EARLY STAGE NON-SMALL CELL LUNG CANCER” (H. Lee Moffitt Cancer Center and Research Institute, Inc., priority 2010, published 2013)

What was measured:
[1] = test system: A489 cell line; assay: MR score in cisplatin treated versus control cells, Almeida et al. dataset GSE6410; assay type: cell-based; conditions: p=0.08
Source text: The inventors have identified 10 published datasets describing drug sensitivity in cell lines. Three of them have been analyzed to show the potential of the MR signature for its association with drug sensitivity. […] A high MR score tends to be associated with low GI50 (sensitivity) in both drugs. In addition, in the Almeida et al.'s study (GSE6410), the MR score was lower in the cisplatin treated group than in the control group in A489 cell line (FIG. 20c).
Thousands and thousands of gene expression array data have been deposited at various public repositories, such as NCBI's Gene Expression Omnibus and EBI's ArrayExpress with more than 600,000 array data for each site (updated in October 2011; 100,000 more since January 2011). The broad and unrestricted microarray data have made in-silico validation of hypotheses accessible and feasible. For this invention, more than 1,000 microarray datasets have potential for performing in-silico validation (e.g., data related to the keyword “non-small cell lung cancer cell line” at GEO). First, appropriate datasets are identified for validation by reading the […] (at least abstract and experimental design). At this moment, more than 10 potential useful datasets have been identified. […] Molecular cancer therapeutics, 2008, 7(7); p. […]

[2] = test system: EGFR-mutant NSCLC; conditions: randomized phase III trial (Zhou et al.); cited from earlier work

## N.N.[Cl][Pt][Cl] [Cisplatin]
[1]
  MR score in treated group versus control group: lower

## C#Cc1cccc(Nc2ncnc3cc(OCCOC)c(OCCOC)cc23)c1 [erlotinib]
[2]
  efficacy compared with platinum-based chemotherapy: superior to platinum-based chemotherapy
